Laboratory results from PubChem BioAssay (NCI).
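These data come from cells grown in 96-well plates and exposed to compound for 48 hours at five concentrations. GI50 marks 50% less growth. TGI is the concentration that stops growth completely.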

What was measured:
Test in all cases: DTP human tumour cell line panel, 48 h
NCI-H23 lung = system: NCI-H23 lung
M14 melanoma = system: M14 melanoma
NCI/ADR-RES ovarian = system: NCI/ADR-RES ovarian
OVCAR-3 ovarian = system: OVCAR-3 ovarian
SK-MEL-28 melanoma = system: SK-MEL-28 melanoma
U251 CNS = system: U251 CNS
UACC-62 melanoma = system: UACC-62 melanoma
OVCAR-8 ovarian = system: OVCAR-8 ovarian
OVCAR-5 ovarian = system: OVCAR-5 ovarian
CAKI-1 renal = system: CAKI-1 renal

CC#CC(=O)N1CCC[C@H]1c1nc(-c2ccc(C(=O)Nc3ccccn3)cc2)c2c(N)nccn12
GI50 (NCI-H23 lung): > 100 µM
TGI (NCI-H23 lung): > 100 µM
GI50 (M14 melanoma): 56.5 µM
TGI (M14 melanoma): > 100 µM
GI50 (NCI/ADR-RES ovarian): > 100 µM
TGI (NCI/ADR-RES ovarian): > 100 µM
GI50 (OVCAR-3 ovarian): 37.2 µM
TGI (OVCAR-3 ovarian): > 100 µM
GI50 (SK-MEL-28 melanoma): 47.3 µM
TGI (SK-MEL-28 melanoma): > 100 µM
GI50 (U251 CNS): > 92.4 µM
TGI (U251 CNS): > 100 µM
GI50 (UACC-62 melanoma): 34.8 µM
TGI (UACC-62 melanoma): > 100 µM
GI50 (OVCAR-8 ovarian): > 80.4 µM
TGI (OVCAR-8 ovarian): > 100 µM
GI50 (OVCAR-5 ovarian): > 100 µM
TGI (OVCAR-5 ovarian): > 100 µM

NC(CSC(c1ccccc1)(c1ccccc1)c1ccc2ccccc2c1)C(=O)O (stereo unspecified)
GI50 (NCI-H23 lung): 0.131 µM
TGI (NCI-H23 lung): 16.4 µM
GI50 (M14 melanoma): 0.0211 µM
TGI (M14 melanoma): 0.0512 µM
GI50 (NCI/ADR-RES ovarian): 0.989 µM
TGI (NCI/ADR-RES ovarian): 3.64 µM
GI50 (OVCAR-3 ovarian): 0.0287 µM
TGI (OVCAR-3 ovarian): 0.0992 µM
GI50 (CAKI-1 renal): 0.0998 µM
TGI (CAKI-1 renal): 34.6 µM
GI50 (SK-MEL-28 melanoma): 0.38 µM
TGI (SK-MEL-28 melanoma): 16 µM
GI50 (U251 CNS): 0.0408 µM
TGI (U251 CNS): 12.1 µM
GI50 (UACC-62 melanoma): 0.0628 µM
TGI (UACC-62 melanoma): 13.6 µM
GI50 (OVCAR-8 ovarian): 0.0804 µM
TGI (OVCAR-8 ovarian): 21.3 µM
GI50 (OVCAR-5 ovarian): 0.323 µM
TGI (OVCAR-5 ovarian): 16.9 µM

Fc1ccccc1C1CC(C(c2ccccc2)c2ccccc2)=Nc2ccccc2S1 (stereo unspecified)
TGI (NCI-H23 lung): 24.7 µM
TGI (M14 melanoma): 25.7 µM
TGI (OVCAR-3 ovarian): 24.4 µM
TGI (CAKI-1 renal): 20.1 µM
TGI (SK-MEL-28 melanoma): 25.1 µM
TGI (U251 CNS): 25.5 µM
TGI (UACC-62 melanoma): 18.7 µM
TGI (OVCAR-8 ovarian): 48.5 µM
TGI (OVCAR-5 ovarian): 33.6 µM

O=c1nc2cc(-c3ccccc3)[nH]c2nn1-c1c(Cl)cc(Cl)cc1Cl
TGI (NCI-H23 lung): 50.2 µM
TGI (M14 melanoma): 59.3 µM
TGI (OVCAR-3 ovarian): 54.2 µM
TGI (CAKI-1 renal): 68.5 µM
TGI (SK-MEL-28 melanoma): > 100 µM
TGI (U251 CNS): 34.2 µM
TGI (UACC-62 melanoma): 35.6 µM
TGI (OVCAR-8 ovarian): 95.8 µM
TGI (OVCAR-5 ovarian): > 100 µM

FC(F)(F)c1ccc(-c2cnc(Br)nc2NC2CCCCCC2)cc1
GI50 (NCI-H23 lung): 32.9 µM
TGI (NCI-H23 lung): > 100 µM
GI50 (M14 melanoma): > 100 µM
TGI (M14 melanoma): > 100 µM
GI50 (NCI/ADR-RES ovarian): 88.9 µM
TGI (NCI/ADR-RES ovarian): > 100 µM
GI50 (OVCAR-3 ovarian): 70.8 µM
TGI (OVCAR-3 ovarian): > 100 µM
GI50 (CAKI-1 renal): 92.9 µM
TGI (CAKI-1 renal): > 100 µM
GI50 (SK-MEL-28 melanoma): > 100 µM
TGI (SK-MEL-28 melanoma): > 100 µM
GI50 (U251 CNS): 75 µM
TGI (U251 CNS): > 100 µM
GI50 (UACC-62 melanoma): 42.6 µM
TGI (UACC-62 melanoma): > 100 µM
GI50 (OVCAR-8 ovarian): > 100 µM
TGI (OVCAR-8 ovarian): > 100 µM
GI50 (OVCAR-5 ovarian): > 100 µM
TGI (OVCAR-5 ovarian): > 100 µM

COc1cc(C2C(C(=O)Nc3ccccc3)=C(C)NC(C)=C2C(=O)Nc2ccccc2)ccc1O
TGI (NCI-H23 lung): > 100 µM
TGI (OVCAR-3 ovarian): 55.9 µM
TGI (SK-MEL-28 melanoma): > 100 µM
TGI (U251 CNS): > 100 µM
TGI (OVCAR-8 ovarian): 85.1 µM
TGI (OVCAR-5 ovarian): > 100 µM

COc1ccc(O)c2c1C(=O)CCCC2=O
TGI (NCI-H23 lung): > 100 µM
TGI (M14 melanoma): > 100 µM
TGI (OVCAR-3 ovarian): > 100 µM
TGI (CAKI-1 renal): > 100 µM
TGI (SK-MEL-28 melanoma): > 100 µM
TGI (U251 CNS): > 100 µM
TGI (UACC-62 melanoma): > 100 µM
TGI (OVCAR-8 ovarian): > 100 µM
TGI (OVCAR-5 ovarian): > 100 µM

COc1ccc(-c2ccc(-c3ccc(C(=N)N)cn3)s2)cc1Cl
GI50 (NCI-H23 lung): 1.83 µM
TGI (NCI-H23 lung): 3.72 µM
GI50 (M14 melanoma): 1.81 µM
TGI (M14 melanoma): 3.44 µM
GI50 (NCI/ADR-RES ovarian): 1.92 µM
TGI (NCI/ADR-RES ovarian): 3.84 µM
GI50 (OVCAR-3 ovarian): 1.83 µM
TGI (OVCAR-3 ovarian): 3.32 µM
GI50 (CAKI-1 renal): 1.65 µM
TGI (CAKI-1 renal): 3.03 µM
GI50 (SK-MEL-28 melanoma): 1.72 µM
TGI (SK-MEL-28 melanoma): 3.35 µM
GI50 (UACC-62 melanoma): 1.88 µM
TGI (UACC-62 melanoma): 3.65 µM
GI50 (OVCAR-8 ovarian): 2.09 µM
TGI (OVCAR-8 ovarian): 4.58 µM
GI50 (OVCAR-5 ovarian): 1.55 µM
TGI (OVCAR-5 ovarian): 3.02 µM

COc1ccc2c(c1)OC13Oc4cc(OC)ccc4C=C1CCCC3=C2
GI50 (NCI-H23 lung): > 100 µM
TGI (NCI-H23 lung): > 100 µM
GI50 (M14 melanoma): > 100 µM
TGI (M14 melanoma): > 100 µM
GI50 (NCI/ADR-RES ovarian): > 100 µM
TGI (NCI/ADR-RES ovarian): > 100 µM
GI50 (SK-MEL-28 melanoma): > 100 µM
TGI (SK-MEL-28 melanoma): > 100 µM
GI50 (U251 CNS): > 100 µM
TGI (U251 CNS): > 100 µM
GI50 (UACC-62 melanoma): 4.5 µM
TGI (UACC-62 melanoma): > 100 µM
GI50 (OVCAR-8 ovarian): > 100 µM
TGI (OVCAR-8 ovarian): > 100 µM
GI50 (OVCAR-5 ovarian): > 100 µM
TGI (OVCAR-5 ovarian): > 100 µM

C[Si](C)(C)/C=C/CN1C(=O)CCC1O (stereo unspecified)
TGI (NCI-H23 lung): > 100 µM
TGI (M14 melanoma): > 100 µM
TGI (OVCAR-3 ovarian): > 100 µM
TGI (CAKI-1 renal): > 100 µM
TGI (SK-MEL-28 melanoma): > 100 µM
TGI (U251 CNS): > 100 µM
TGI (UACC-62 melanoma): > 100 µM
TGI (OVCAR-8 ovarian): > 100 µM
TGI (OVCAR-5 ovarian): > 100 µM

COc1ccc(NC(=O)c2cc(OC)c(OC)c(OC)c2)cc1O
GI50 (NCI-H23 lung): 5.32 µM
TGI (NCI-H23 lung): > 100 µM
GI50 (M14 melanoma): 2.91 µM
TGI (M14 melanoma): > 100 µM
GI50 (NCI/ADR-RES ovarian): 1.13 µM
TGI (NCI/ADR-RES ovarian): > 100 µM
GI50 (SK-MEL-28 melanoma): 28.1 µM
TGI (SK-MEL-28 melanoma): > 100 µM
GI50 (U251 CNS): 3.71 µM
TGI (U251 CNS): > 100 µM
GI50 (UACC-62 melanoma): 2.66 µM
TGI (UACC-62 melanoma): > 100 µM
GI50 (OVCAR-8 ovarian): 4.98 µM
TGI (OVCAR-8 ovarian): > 100 µM
GI50 (OVCAR-5 ovarian): 40.1 µM
TGI (OVCAR-5 ovarian): > 100 µM

CN(O)C(=O)Cc1ccccc1
TGI (NCI-H23 lung): > 100 µM
TGI (M14 melanoma): > 100 µM
TGI (OVCAR-3 ovarian): > 100 µM
TGI (CAKI-1 renal): > 100 µM
TGI (SK-MEL-28 melanoma): > 100 µM
TGI (U251 CNS): > 100 µM
TGI (UACC-62 melanoma): > 100 µM
TGI (OVCAR-8 ovarian): > 100 µM
TGI (OVCAR-5 ovarian): > 100 µM

Fc1ccc(-c2ncn(C3CCNCC3)c2-c2ccnc(Oc3cccc(F)c3)n2)cc1
GI50 (M14 melanoma): 5.26 µM
TGI (M14 melanoma): 10.5 µM
GI50 (NCI/ADR-RES ovarian): > 23.4 µM
TGI (NCI/ADR-RES ovarian): > 25 µM
GI50 (OVCAR-3 ovarian): > 20.9 µM
TGI (OVCAR-3 ovarian): > 25 µM
GI50 (CAKI-1 renal): 17.9 µM
TGI (CAKI-1 renal): > 25 µM
GI50 (SK-MEL-28 melanoma): 5.46 µM
TGI (SK-MEL-28 melanoma): 11.6 µM
GI50 (U251 CNS): 9.74 µM
TGI (U251 CNS): > 25 µM
GI50 (UACC-62 melanoma): 10.5 µM
TGI (UACC-62 melanoma): > 18.6 µM
GI50 (OVCAR-8 ovarian): > 25 µM
TGI (OVCAR-8 ovarian): > 25 µM
GI50 (OVCAR-5 ovarian): 22.2 µM
TGI (OVCAR-5 ovarian): > 25 µM

COc1cc(Br)c(CC2=NCCc3cc(OC)c(OC)cc32)cc1OC
TGI (NCI-H23 lung): > 100 µM
TGI (M14 melanoma): 65.8 µM
TGI (OVCAR-3 ovarian): > 100 µM
TGI (CAKI-1 renal): > 100 µM
TGI (SK-MEL-28 melanoma): > 100 µM
TGI (U251 CNS): > 100 µM
TGI (UACC-62 melanoma): > 100 µM
TGI (OVCAR-8 ovarian): > 100 µM
TGI (OVCAR-5 ovarian): > 100 µM

COc1cc2c(cc1C)n(O)c(C)c(C(=O)C/C(=N/NC(=O)C[N+](C)(C)C)C(=O)Nc1cccc(Cl)c1C)[n+]2=O
TGI (NCI-H23 lung): > 100 µM
TGI (M14 melanoma): > 100 µM
TGI (OVCAR-3 ovarian): > 100 µM
TGI (CAKI-1 renal): > 100 µM
TGI (SK-MEL-28 melanoma): > 100 µM
TGI (U251 CNS): > 100 µM
TGI (UACC-62 melanoma): > 100 µM
TGI (OVCAR-8 ovarian): > 100 µM
TGI (OVCAR-5 ovarian): > 100 µM

O=c1cccccc1NCCCCNc1cccccc1=O
TGI (NCI-H23 lung): > 100 µM
TGI (M14 melanoma): > 100 µM
TGI (OVCAR-3 ovarian): > 100 µM
TGI (CAKI-1 renal): > 100 µM
TGI (SK-MEL-28 melanoma): > 100 µM
TGI (U251 CNS): > 100 µM
TGI (UACC-62 melanoma): > 100 µM
TGI (OVCAR-8 ovarian): > 100 µM
TGI (OVCAR-5 ovarian): > 100 µM

COc1cccc(C2C(C(=O)Nc3cc(=O)n(C)c(=O)n3C)=C(C)NC(C)=C2C(=O)Nc2cc(=O)n(C)c(=O)n2C)c1O
TGI (NCI-H23 lung): > 100 µM
TGI (M14 melanoma): > 100 µM
TGI (OVCAR-3 ovarian): > 100 µM
TGI (CAKI-1 renal): > 100 µM
TGI (SK-MEL-28 melanoma): > 100 µM
TGI (U251 CNS): > 100 µM
TGI (OVCAR-8 ovarian): > 100 µM
TGI (OVCAR-5 ovarian): > 100 µM

Cc1ccc(Nc2ccc(Nc3ccc(C)cc3)c3c2C(=O)c2c(O)ccc(O)c2C3=O)cc1
TGI (NCI-H23 lung): > 100 µM
TGI (M14 melanoma): > 100 µM
TGI (OVCAR-3 ovarian): > 100 µM
TGI (CAKI-1 renal): > 100 µM
TGI (SK-MEL-28 melanoma): > 100 µM
TGI (U251 CNS): > 100 µM
TGI (UACC-62 melanoma): > 100 µM
TGI (OVCAR-8 ovarian): > 100 µM
TGI (OVCAR-5 ovarian): > 100 µM
